Reference: US5834492A, “Water soluble orally effective iron chelator” (Jacobus Pharmaceutical Co., priority 1997, dated 1998)
In brackets after ≈: the same amount, converted by molar mass. Several values for one entry are separate records, joined by “and”; a condition that tells them apart may be missing. Identical values can stand only once. Entries after “also recorded” stand apart in the source; their conditions may differ. Counter-ions that a name gives are not always drawn. Like-named read-outs stand apart in the source and are kept apart here.

Tests used:
[1] = Water / aqueous solubility at 25 °C; type: physicochemical
[2] = noted by Sah 1953; cited from earlier work
[3] = cited from earlier work
[4] = continuous infusion in solution; rats; cited from earlier work
[5] = cited from earlier work; remark: listed apart in the source
[6] = Solubility in ethanol or acetonitrile; type: physicochemical
Procedure: PIH has very limited solubility in water and ethanol, and in fact, to solubilize 28.6 grams of PIH would require 30,000 cc of absolute ethanol. Nevertheless, the aforesaid molar concentrations were used to produce a suspension to which was added the ethereal HCI solution.
As a result of applicant's work, this procedure raises even more questions of operability than the immediately preceding one, since the acetonitrile solubility of the precipitate obtained after treatment of an authentic sample of PIH with ethereal HCI, is virtually nil. Specifically, attempts to solubilize the product succeeded in dissolving only 40 ma of material per 500 cc of hot acetonitrile--a ratio of 1 gram per 12.5 liters of acetonitrile (a ratio of […]) and no precipitate was obtained after addition of dry ether--even upon cooling the solution. Applicants were unable to liberate any product from the recrystallization system disclosed in U.S. 2,810,725.
This cannot be accomplished since the solubility of PIH in ethanol is approximately 1 mg/mL and would require a volume of 30,000 cc for dissolution as described and not 500 cc.
There was utilized a suspension of 57.2 mg/cc (1.43 g, 5 mMol in 25 cc absolute ethanol) to which were added two equivalents (10 mmoles) of 4 N ethereal HCI (2.5 cc) and stirred for one hour. The light yellow starting material became a copious off-white suspension. This was filtered and dried to give 1.68 g of a solid with melting point 250°-252°C. (dec) with discoloration beginning at 240° C. An authentic sample of PIH dihydrochloride, synthesized according to Example 1 supra, melts at 255°-257° C.

[7] = Human studies of oral PIH: iron excretion, toxicity, palatability; type: in vivo; settings: in the mouth
Excerpt: There has, heretofore been no convenient, safe and effective orally administered chelator that has been developed for clinical use.

[8] = below pH 3; chromatographic investigations; cited from earlier work
[9] = Stability of the solid to light and anhydrous heat; type: physicochemical
[10] = Total daily iron excretion in iron overloaded patients (enteric granules or glycine-buffered capsules); settings: patients with iron overload
Procedure: Five human subjects were administered PIHDH (PIH(HCI)2) as either enteric coated granules at 546 mg three times daily representing the lowest dose tested at 20 mg/kg per day.

[11] = Stability/degradation in aqueous medium of given pH; type: physicochemical; settings: for degraded at 3 h: aqueous medium, read-out: degradation after three hours
[12] = Biliary iron excretion in iron-overloaded rats after gavage, bile duct cannulated; type: in vivo, Male Sprague-Dawley rats; settings: gavage 100 mg/kg, versus PIH equivalent dosage
Procedure: Measurement of the bioefficiency of iron chelators have been carried out in rats using the methods of Brittenham supra and Park et al,(C. Park, B. R. Bacon, G. M. Brittenham and N. Tas. Lab Invest. 57:555-63 (1987).
Male Sprague-Dawley rats weighing approximately 200 g were housed in cages and randomly assigned to three groups containing at least 6 animals. The groups received (i) one ml of saline alone administered by gavage (ii) 1 mL saline with PIH as the free base, 100 mg/kg body weight, added just prior to administration by gavage and (iii) 1 mL saline with PIHDH, 100 mg/kg body weight, added just prior to administration by gavage. The doses of chelators tested are chosen to provide direct comparisons with previous assay data. Animals receiving the chelators or saline by gavage receive doses 45 minutes prior to surgery. Animals are placed under anesthesia and the bile duct cannulated to permit continuous collection of bile during the assay time period. The bile is collected at half-hour intervals for 5 or 6 hours and the iron content determined spectrophotometrically, using bathophen-anthroline sulfonate for color development as published by Pippard et al, (M. J. Pippard, D. K. Johnson and C. A. Finch. Blood. 58:685-92 (1981)). […]

[13] = Iron complexation (chelation); settings: aqueous solutions in vitro and in vivo
[14] = water, 25 °C (FIG. 16), read-out: water solubility

With `Cc1ncc(CO)c(C=NNC(=O)c2ccncc2)c1O` [Pyridoxal isonicotinoyl hydrazone isethionate] the solubility ([1]; 0.1 n hcl, read-out: solubility in 0.1N HCl) was 36 mg/mL and the solubility ([1]; water, read-out: water solubility) was 2.7 mg/mL.

For `Cc1ncc(CO)c(/C=N/NC(=O)c2ccncc2)c1O` [PIH, 3-hydroxy-5-hydroxy-methyl-2-methyl-4-pyridinylcarboxaldehyde 4' pyridinecarboxylic acid hydrazone], the “water solubility, in words (literature)” value [2] is listed as “very low water solubility”, the “iron excretion compared with subcutaneously injected desferrioxamine” value ([3]; oral PIH at three times the molar rates, preliminary human studies) is listed as “less than half of that expected with subcutaneously injected desferrioxamine” and the “toxicity at doses needed for sufficient iron excretion” value ([3]; oral capsule, >60 mg/kg, people) is listed as “toxicity characterized by elevated hepatic enzymes”. For the same compound, the “oral dose needed to elicit sufficient iron excretion” value ([3]; oral capsule, people) was > 60 mg/kg, the “oral efficacy / iron removal in humans” value ([3]; oral, humans) was “poor oral efficacy; also recorded: inadequate levels of iron are removed in humans” and the palatability ([3]; oral, phase I clinical trials) was “highly unpalatable with a lingering unpleasant taste and oral sensation”. For the same compound, the “iron excretion compared to desferrioxamine” value [4] was “quantitatively similar iron excretion”, the “absorption after oral administration” value [5] was “not fully absorbed in vivo after oral administration” and the “PIH crystals in feces” value ([5]; treated animals/subjects, oral) was “presence of PIH crystals in the feces of treated animals; also recorded: crystals actually visible in feces of treated subjects”. For the same compound, the “volume of absolute ethanol required to dissolve 28.6 g PIH” value ([6]; absolute ethanol) was 30,000 cc and 30.000 cc, the solubility in ethanol ([6]; ethanol) was “approximately 1 mg/mL” and the taste [7] was “unpleasant taste”. For the same compound, the water solubility ([1]; water, 25 °C (FIG. 16)) was 0.14 mg/mL (≈ 489 µM), the solubility [1, 14] was 0.14 mg/mL (≈ 489 µM) and the “instability under acidic conditions” value [8] was “dissolution below pH 3 can lead to decomposition”.

With `Cc1ncc(CO)c(C=NNC(=O)c2ccncc2)c1O` [hydrochloride-1.5 hydrate of PIH, 3-hydroxy-5-(hydroxymethyl) -2-methyl-4-pyridinecarboxaldehyde-4' pyridin ecar-boxylic acid hydrazone monohydrochloride trihemihydrate] the water solubility ([1]; water, 25 °C (FIG. 16)) was 34 mg/mL and the “water solubility, in words” value ([1]; water, listed as monohydrochloride 1.5 hydrate) was “slower solubilization”.

In the case of `Cc1ncc(CO)c(C=NNC(=O)c2ccncc2)c1O` [PIHDH, 3-hydroxy-5-(hydroxy-methyl)-2-methyl-4-pyridinecarboxaldehyde-4' pyridinecarboxylic acid hydrazone dihydrochloride], the stability of crystals [9] is reported as “stable to light and anhydrous heat”, the “absorption of enteric granules or buffered capsules” value [10] is reported as “adequately absorbed” and the degraded at 3 h ([11]; pH 1.29, 3 h) is reported as 44.1%. The degraded at 3 h ([11]; pH 2.78, 3 h) was 17.7%, the decomposition when buffered ([11]; buffered above 3.0 to 7.0) was “virtually little to virtually no decomposition” and the “degradation after three hours” value ([11]; pH 6.8, 3 h) was “no degradation”. The “total biliary iron excretion relative to PIH (percent)” value [12] was 250%, the “total biliary iron excretion relative to PIH (times greater)” value [12] was 2.5 times and the “water solubility relative to PIH (times more water soluble)” value ([1]; PIHDH versus PIH base, dihydrochloride) was 450 times and > 450 times. For the same compound, the solubility [1, 14] was 63 mg/mL, the “water solubility, in words” value ([1]; water, dihydrochloride) was “better water solubility than the free base and its related hydrated species” and the “ability to complex iron” value [13] was “preserves its ability to complex iron in aqueous solutions in vitro and in vivo”.

With `Cc1ncc(CO)c(C=NNC(=O)c2ccncc2)c1O` [product] the “solubility in acetonitrile, in words” value ([6]; acetonitrile) was “virtually nil”, the “solubility of product in acetonitrile” value ([6]; acetonitrile) was “less than 0.1 mg/mL” and the “amount of material dissolved per 500 cc hot acetonitrile” value ([6]; per 500 cc hot acetonitrile) was 40 ma.
